Data: article PMC7932537, “Quantitative profiling of protease specificity” (PLoS Computational Biology, 2021)

Assays:
MMP-9 [1] = assay: Substrate phage display with NGS: relative probability (RP) of P3-P1' tetramer clusters; format: biochemical, human; conditions: MMP9; RP of the substrate's P3-P1' tetramer, substrate phage display with NGS;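 note: ratio of tetramer probability after protease selection to that in naive phage library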
MMP-2 = target: T1, MMP-2 (Homo sapiens, UniProt P08253); assay: K(obs) of individual phage substrates (set of 1369); format: biochemical; conditions: MMP2; individual phage substrate from the set of 1369 peptides; hyphen in the sequence marks the cleavage position
T1 sequence (P08253 110-660): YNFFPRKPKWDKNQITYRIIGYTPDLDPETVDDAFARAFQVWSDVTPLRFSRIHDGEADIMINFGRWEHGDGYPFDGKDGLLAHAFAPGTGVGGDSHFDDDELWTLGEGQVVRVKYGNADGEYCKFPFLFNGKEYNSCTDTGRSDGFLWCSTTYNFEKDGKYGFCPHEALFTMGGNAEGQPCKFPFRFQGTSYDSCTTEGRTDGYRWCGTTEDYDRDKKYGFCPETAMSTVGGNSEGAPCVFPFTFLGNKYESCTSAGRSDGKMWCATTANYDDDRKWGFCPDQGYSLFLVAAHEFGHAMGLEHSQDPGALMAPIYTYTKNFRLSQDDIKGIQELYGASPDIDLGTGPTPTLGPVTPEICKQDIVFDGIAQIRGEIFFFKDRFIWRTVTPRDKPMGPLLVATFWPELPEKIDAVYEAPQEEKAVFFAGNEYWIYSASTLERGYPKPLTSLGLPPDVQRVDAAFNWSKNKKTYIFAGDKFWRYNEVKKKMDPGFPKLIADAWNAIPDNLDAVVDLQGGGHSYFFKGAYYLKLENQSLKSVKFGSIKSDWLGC

MMP-9 [2] = target: MMP-9 (Homo sapiens, UniProt P14780); assay: as above; format: biochemical; conditions: MMP9; individual phage substrate of the set of 1369 peptides; dash in sequence marks cleavage position
Sequence of MMP-9 (Homo sapiens, UniProt P14780) (P14780 94-707): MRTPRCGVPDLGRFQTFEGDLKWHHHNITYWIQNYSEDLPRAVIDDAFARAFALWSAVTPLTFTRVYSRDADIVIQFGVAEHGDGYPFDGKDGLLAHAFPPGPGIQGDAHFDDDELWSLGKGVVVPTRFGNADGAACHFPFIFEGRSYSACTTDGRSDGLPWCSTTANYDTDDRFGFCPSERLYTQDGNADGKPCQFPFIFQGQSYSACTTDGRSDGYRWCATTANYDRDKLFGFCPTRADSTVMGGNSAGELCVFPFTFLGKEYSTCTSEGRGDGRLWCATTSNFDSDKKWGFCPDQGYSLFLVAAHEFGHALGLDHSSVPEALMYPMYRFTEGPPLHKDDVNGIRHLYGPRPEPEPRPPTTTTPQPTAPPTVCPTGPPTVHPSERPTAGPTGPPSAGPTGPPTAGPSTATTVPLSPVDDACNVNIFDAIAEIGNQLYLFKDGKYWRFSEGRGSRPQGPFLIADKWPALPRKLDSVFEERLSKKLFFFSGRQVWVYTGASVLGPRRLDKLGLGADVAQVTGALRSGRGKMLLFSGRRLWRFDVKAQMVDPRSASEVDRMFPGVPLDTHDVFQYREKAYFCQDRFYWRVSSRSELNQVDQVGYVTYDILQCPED

Substance	relative probability (RP) (MMP-9 [1])	Kobs (MMP-2) [M⁻¹ s⁻¹]	Kobs (MMP-9 [2]) [M⁻¹ s⁻¹]
GRPAG-VKTAS	31.0803	12792.1	3079.62
GRPAQ-MKTAS	38.7952	3850.82	5667.28
GRPLN-LSTAS	48.0943	12792.1	12792.1
GRPRS-LLTAS	44.7764	12792.1	7815.03
GRPSA-MTTAS	46.4881	3741.87	9740.44
GRPSF-LKTAS	37.0272	12792.1	8321.48
GRPSP-FWTAS	37.3217	12792.1	3850.82
GRPVN-LTTAS	46.0636	12792.1	12792.1
GSAIP-LWTAS	32.5296	1418.96	2038.8
GSGRG-LWSET	11.4523	799.117	1373.05
GSHAA-LRTAS	0.9522	12792.1	0
GSPLP-FITAS	46.6229	12792.1	12792.1
GSPRN-LRTAS	48.2698	12792.1	12792.1
GTPIE-LYTAS	35.3641	8321.48	9740.44
GTPRN-IKTAS	46.5688	12792.1	12792.1
GVLRN-LITAS	37.603	12792.1	6688.74
GVPKN-QMTAS	35.1259	4205.91	7815.03
GVPRA-VTASG	40.8515	6396.07	12792.1
GVPRG-VRTAS	42.1832	12792.1	10866.7
GVPRY-LRTAS	44.5304	12792.1	12792.1
GVPSK-LTASG	38.9571	12792.1	12792.1
GVVGA-LRTAS	19.0529	10866.7	874.197

Substance	relative probability (RP) (MMP-9 [1])	Kobs (MMP-2) [M⁻¹ s⁻¹]	Kobs (MMP-9 [2]) [M⁻¹ s⁻¹]
GWIAT-LRTAS	0.199	5090.5	1561.44
GWPSE-LRTAS	41.3266	12792.1	12792.1
GYFAN-LTASG	0.8121	12792.1	0
GYPAG-LRTAS	47.2274	12792.1	12792.1
GYPRG-LGTAS	47.3825	12792.1	12792.1
HAPSL-YTASG	23.6706	12792.1	12792.1
HKIAL-LTASG	0.8483	7386.83	56.119
HMPLG-LTASG	48.9856	12792.1	12792.1
HRPEW-YTASG	25.7162	3741.87	4082.43
HTVRG-LTASG	42.3063	12792.1	12792.1
HTVRN-VTASG	19.0254	5269.78	3079.62
HTVYW-MTASG	40.8648	2038.8	6396.07
HVPRQ-VTASG	25.107	27.918	8941.32
HVVAK-MTASG	0.5992	6396.07	1981.53
HVVAQ-LTASG	6.994	12792.1	551.253
HYVRA-HTASG	18.814	10866.7	4205.91
IAPAK-LTASG	39.5582	12792.1	12792.1
IAPEF-LTASG	20.835	12792.1	12792.1
IFARS-LTASG	26.1862	12792.1	12792.1
IFPAN-HTASG	10.2001	12792.1	5090.5
IGVRA-LTASG	43.1929	12792.1	12792.1
